This passage reports MIC and minimal effective concentration results from patent US11066447B2, “Aureobasidium derivatives and methods of synthesis” (AureoGen Biosciences, Inc., priority 2016, dated 2021).

Converted amounts (≈) assume the structure as drawn. Like-named read-outs stand apart in the source and are kept apart here. Numbered stars: 1 amine (or outer) side, 2 acyl side, 3 side chain; on linkers, the order of the positions; unused ones are H or OH. Square brackets hold non-standard residues; d marks the D form. Peptide text beside a SMILES is read from it. X35 = CN([C@@H](Cc1cccc(-c2ccc(-n3c4ccccc4c4ccccc43)cc2)c1)C(=O)[*:2])[*:1]; X27 = CN([C@@H](Cc1cccc(-c2cccc3ccccc23)c1)C(=O)[*:2])[*:1]; Hmp(2R,3S) = CC[C@H](C)[C@@H](O)C(=O)O; NMeVal(β-OH) = CN[C@H](C(=O)O)C(C)(C)O; NMeV = CN[C@H](C(=O)O)C(C)C

As a reminder, the MIC is the least concentration at which growth counts as inhibited.

The test system of test [1] is A. fumigatus MMX 6781 ATCC MYA-4609. The test can be described thus: MIC/MEC assay (CLSI microdilution). Particulars: Aspergillus fumigatus; for MIC: 48 h, RPMI plus 0.002% Tween-80, read-out: MIC; for minimal effective concentration: RPMI plus 0.002% Tween-80, 48 hr. Format: cell-based. How it is done:
(§1) Aureobasidin and test compounds (i.e., AbA derivatives of the present invention) were received from Kalexsyn, Inc. (Kalamazoo, Mich.) as powder and were stored at 4° C. until the day of assay. […] amphotericin was obtained from Sigma Aldrich and stored under like conditions. […] Ethanol (95%) was used as a solvent and diluent for all AbA compounds. Amphotericin B was tested from 0.06-64 μg/mL. Amphotericin B (Sigma Aldrich; St. Louis, Mo.; Cat No. A9528-100MG, Lot No. 120M4087) was dissolved and diluted with dimethylsulfoxide (DMSO; Sigma Aldrich; St. Louis, Mo.; Cat No. 472301 Lot No. SHBD2072V).
(§2) The solvents were added to the test agents and the stock solutions stood for approximately 1 hr at room temperature prior to use to auto sterilize. Stock solutions were prepared at 40× the desired top concentration in the test plate.
(§3) All of the test isolates were originally received from either the American Type Culture Collection (ATCC), clinical labs, or directly from Aureogen Biosciences. Organisms stored by Micromyx were cultured on agar medium appropriate to each organism. Colonies were picked by swab from the isolation plates and put into suspension in appropriate broth containing cryoprotectant. The suspensions were aliquoted into cryogenic vials and maintained at −80° C.
(§4) Prior to testing, Candida isolates were streaked from the frozen vials on Sabouraud dextrose agar. The yeast isolates were incubated for 48 hours at 35° C. before use. The fungal isolates were obtained from enumerated fungal stocks previously prepared at Micromyx and stored in phosphate buffered saline at 4° C.
(§5) Test Media. The medium employed for the MIC assay was RPMI-1640 medium from HyClone Laboratories (Logan, Utah; Lot No. AYB60287A). The medium was prepared according to Clinical and Laboratory Standards Institute (CLSI) guidelines (1, 2), and modified to include 0.002% Tween-80. Candida parapsilosis ATCC 22019 (MMX 2323) and Aspergillus fumigatus ATCC MYA-3626 (MMX 5280) were also tested without Tween-80 to provide data for the quality control of amphotericin B in accordance with CLSI (3) and to assess the effect of Tween-80 on the activity of the test agents.
(§6) Test Procedure. The MIC assay method followed the procedure described by CLSI (1, 2) and employed automated liquid handlers to conduct serial dilutions and liquid transfers. Automated liquid handlers included the Multidrop 384 (Labsystems, Helsinki, Finland), Biomek 2000 and Biomek FX (Beckman Coulter, Fullerton Calif.). The wells in columns 2-12 in standard 96-well microdilution plates (Costar 3795) were filled with 150 μl of the appropriate diluent (95% EtOH for investigational compounds, 100% DMSO for amphotericin B). These assay plates would become the ‘mother plates’ from which the assay ‘daughter plates’ would be prepared. The drugs (300 μL at 40× the desired top concentration in the test plates) were dispensed into the appropriate well in Column 1 of the mother plates. The Biomek 2000 was used to make two-fold serial dilutions through Column 11 in the “mother plate”. The wells of Column 12 contained no drug and served as the organism growth control wells.
(§7) The daughter plates were loaded with 185 μL per well on the Multidrop 384 with RPMI plus 0.002% Tween-80 or RPMI containing no Tween-80 for the testing of the two QC isolates. The daughter plates were prepared on the Biomek FX instrument which transferred 5 μL of drug solution from each well of a mother plate to each corresponding well of each daughter plate in a single step.
(§8) A standardized inoculum of each organism was prepared per CLSI methods (1, 2). For the Candida isolates, colonies were picked from the streak plate and a suspension was prepared in RPMI to equal a 0.5 McFarland standard. This suspension was diluted 1:100 in RPMI resulting in a final concentration of approximately 0.5-2.5×10^3 CFU/mL. […]
Background: Broth dilution looks for growth in wells or tubes with falling amounts of substance.

The subject of test [2] is A. niger MMX 0624 ATCC 16888. The test can be described thus: MIC/MEC assay (CLSI microdilution). The test is classed as cell-based. Particulars: Aspergillus niger, ATCC16888, 48 h; for minimal effective concentration: RPMI plus 0.002% Tween-80, read-out: MEC; for MIC: RPMI plus 0.002% Tween-80, read-out: MIC. The method, then:
as §1, §2, §3, §4, §5, §6, §7, §8

The test system of test [3] is A. fumigatus MMX 5944. The test can be described thus: MIC/MEC assay (CLSI microdilution). The test is classed as cell-based. The settings on record: Aspergillus fumigatus, MMX5944, 48 h; for minimal effective concentration: RPMI plus 0.002% Tween-80; for MIC: RPMI plus 0.002% Tween-80, read-out: MIC. The method, then:
as §1, §2, §3, §4, §5, §6, §7, §8

Test [4] deals with A. flavus MMX 5948. As to the kind of experiment: MIC/MEC assay (CLSI microdilution). The test is classed as cell-based. Particulars: Aspergillus flavus, MMX5948, 48 h; for minimal effective concentration: RPMI plus 0.002% Tween-80; for MIC: RPMI plus 0.002% Tween-80, read-out: MIC. How it is done: as §1, §2, §3, §4, §5, §6, §7, §8
For test [5], the system named is A. fumigatus MMX 6782 ATCC 13073. The test can be described thus: MIC/MEC assay (CLSI microdilution). The test is classed as cell-based. The settings on record: Aspergillus fumigatus, ATCC13073, 48 h; for minimal effective concentration: RPMI plus 0.002% Tween-80, read-out: MEC; for MIC: RPMI plus 0.002% Tween-80, read-out: MIC. How it is done:
as §1, §2, §3, §4, §5, §6, §7, §8

Test [6] has as its system A. fumigatus MMX 5280 ATCC MYA-3626. As to the kind of experiment: MIC/MEC assay (CLSI microdilution). Format: cell-based, Aspergillus fumigatus. Particulars: Aspergillus fumigatus, 48 h. The method, then:
as §1, §2, §3, §4, §5, §6, §7, §8

The test system of test [7] is C. parapsilosis MMX 2323 ATCC 22019. The test can be described thus: MIC assay (CLSI microdilution). The settings on record: read-out: MIC. The test is classed as cell-based, Candida parapsilosis. The method, then:
as §1, §2, §3, §4, §5, §6, §7, §8

Test [8] relates to C. neoformans MMX 0634 ATCC 90112. As to the kind of experiment: MIC assay (CLSI microdilution). Particulars: Cryptococcus neoformans, ATCC90112, RPMI plus 0.002% Tween-80; read-out: MIC. The test is classed as cell-based. The method, then: as §1, §2, §3, §4, §5, §6, §7, §8
Test [9] relates to C. albicans MMX 2000 ATCC 10231. The test can be described thus: MIC assay (CLSI microdilution). The test is classed as cell-based. Particulars: Candida albicans, ATCC10231, RPMI plus 0.002% Tween-80; read-out: MIC. The method, then:
as §1, §2, §3, §4, §5, §6, §7, §8

Setting [10] is: RPMI plus 0.002% Tween-80, read-out: MEC.
Where [11] appears, read: RPMI plus 0.002% Tween-80, read-out: MIC.
The mark [12] stands for this setting: Without Tween-80, read-out: MEC.
The mark [13] stands for this setting: Without Tween-80, read-out: MIC.
Where [14] appears, read: ATCC22019, RPMI plus 0.002% Tween-80.

With `CC[C@H](C)[C@@H]1NC(=O)[C@@H]2CCCN2C(=O)[C@H](Cc2cccc(-c3cccc4ccccc34)c2)N(C)C(=O)[C@H](Cc2ccccc2)NC(=O)[C@H](C(C)C)N(C)C(=O)[C@@H]([C@@H](C)CC)OC(=O)[C@H](C(C)(C)O)N(C)C(=O)[C@H](CC(C)C)NC(=O)[C@H](C(C)C)N(C)C1=O` [Compound 9] (cyclo(F[X27]PI[NMeV]L[NMeVal(β-OH)][Hmp(2R,3S)][NMeV])), the MIC in test [1] is more than 64 mg/L; in test [2], 0.25 mg/L; in test [3] it was more than 64 mg/L; in [4] it was more than 64 mg/L; in [5], more than 64 mg/L; in [6] (setting [11]), more than 64 mg/L. Also, the MIC in test [6] (setting [13]) was more than 64 mg/L; in test [7] (setting [14]) it was 0.25 mg/L; in test [7] (ATCC22019, Without Tween-80), 1 mg/L (≈ 0.815 µM); in test [8], 0.12 mg/L; in test [9] it was 0.12 mg/L. The minimal effective concentration is 1 µg/mL in [1]; 0.25 µg/mL in [2]; more than 64 µg/mL in test [3]; more than 64 µg/mL in test [4]; 1 µg/mL in test [5]; more than 64 µg/mL in test [6] (setting [10]). Further, the minimal effective concentration in [6] (setting [12]) is more than 64 µg/mL.

As to `CC[C@H](C)[C@@H]1NC(=O)[C@@H]2CCCN2C(=O)[C@H](Cc2cccc(-c3ccc(-n4c5ccccc5c5ccccc54)cc3)c2)N(C)C(=O)[C@H](Cc2ccccc2)NC(=O)[C@H](C(C)C)N(C)C(=O)[C@@H]([C@@H](C)CC)OC(=O)[C@H](C(C)(C)O)N(C)C(=O)[C@H](CC(C)C)NC(=O)[C@H](C(C)C)N(C)C1=O` [Compound 8] (cyclo(F[X35]PI[NMeV]L[NMeVal(β-OH)][Hmp(2R,3S)][NMeV])), the MIC in test [1], in test [2], in [3], in test [4], in [5] and in test [6] (setting [11]) was more than 64 mg/L in each case. For the same molecule, the MIC in test [6] (setting [13]) is more than 64 mg/L; in test [7] (setting [14]), more than 64 mg/L; in [7] (ATCC22019, Without Tween-80), more than 64 mg/L; in [8], more than 64 mg/L; in test [9] it was more than 64 mg/L. Also, the minimal effective concentration in test [1], in [2], in test [3], in [4], in [5] and in test [6] (setting [10]) was more than 64 µg/mL each time. For the same molecule, in test [6] (setting [12]), the minimal effective concentration is more than 64 µg/mL.
